Test results published in patent US20090312265A1, “NOVEL ANTIMICROBIAL PEPTIDES AND USE THEREOF” (priority 2006, published 2009).
No end group written: not given here.

Legend:
[1] = Liposome leakage assay (carboxyfluorescein release), PC liposomes; settings: scale: Triton X100 = 100% release; for PC + NaCl (CF release, liposome leakage): 10 mM Tris pH 7.4 with additional 150 mM NaCl; for PC − NaCl (CF release, liposome leakage): 10 mM Tris pH 7.4 without NaCl
Experimental: (§1) Dry lipid films were prepared by dissolving either dioleoylphosphatidylcholine (Avanti Polar Lipids, Alabaster, Ala.) (60 mol %) and cholesterol (Sigma, St Louis, Mo.) (40 mol %), or dioleoylphosphatidylcholine (30 mol %), dioleoylphosphatidic acid (Avanti Polar Lipids, Alabaster, Ala.) (30 mol %) and cholesterol (40 mol %) in chloroform, and then removing the solvent by evaporation under vacuum overnight. Subsequently, buffer solution containing 10 mM Tris, pH 7.4, either with or without additional 150 mM NaCl, was added together with 0.1 M carboxyfluorescein (CF) (Sigma, St Louis, Mo.). After hydration, the lipid mixture was subjected to eight freeze-thaw cycles consisting of freezing in liquid nitrogen and heating to 60° C. Unilamellar liposomes with a diameter of about 130 nm (as found with cryo-TEM; results not shown) were generated by multiple extrusions through polycarbonate filters (pore size 100 nm) mounted in a LipoFast miniextruder (Avestin, Ottawa, Canada). Untrapped carboxyfluorescein was then removed by filtration through two subsequent Sephadex G-50 columns with the relevant Tris buffer as eluent. Both extrusion and filtration was performed at 22° C. In the liposome leakage assay, the well lmown self-quenching of CF was used. Thus, at 100 mM CF is self-quenched, and the recorded fluorescence intensity from liposomes with entrapped CF is low. […] The CF release was determined by monitoring the emitted fluorescence at 520 nm from a liposome dispersion (10 mM lipid in 10 mM Tris pH 7.4). An absolute leakage scale is obtained by disrupting the liposomes at the end of the experiment through addition of 0.8 mM Triton X100 (Sigma, St Louis, Mo.), thereby causing 100% release and dequenching of CF. A SPEX-fluorolog 1650 0.22-m double spectrometer (SPEX Industries, Edison, N.J.) was used for the liposome leakage assay (see Table 4).

[2] = Liposome leakage assay (carboxyfluorescein release), PA liposomes; settings: scale: Triton X100 = 100% release; for PA + NaCl (CF release, liposome leakage): 10 mM Tris pH 7.4 with additional 150 mM NaCl; for PA − NaCl (CF release, liposome leakage): 10 mM Tris pH 7.4 without NaCl
Experimental: as §1

[3] = CD-spectroscopy, helix content; assay type: physicochemical; settings: 10 mM Tris, 10 μM peptide, 37° C.; for Helix content, PA: pH 7.4, PA liposome dispersion (100 μM lipid); for Helix content, PC: pH 7.4, PC liposome dispersion (100 μM lipid); for Helix content, Buffer: pH 7.4, buffer
Experimental: The CD spectra of the peptides in solution were measured on a Jasco J-810 Spectropolarimeter (Jasco, U.K.). The measurements were performed at 37° C. in a 10 mm quartz cuvet under stirring and the peptide concentration was 10 μM. The effect of on peptide secondary structure of liposomes at a lipid concentration of 100 μM was monitired in the range 200-250 nm. The only peptide conformations observed under the conditions investigated were α-helix and random coil. The fraction of the peptide in α-helical conformation, Xα, is calculated from
where A is the recorded CD signal at 225 nm, and Aα and Ac are the CD signal at 225 nm for a reference peptide in 100% α-helix and 100% random coil conformation, respectively. 100% α-helix and 100% random coil references were obtained from 0.133 mM (monomer concentration) poly-L-lysine in 0.1 M NaOH and 0.1 M HCl, respectively. To account for the instrumental differences between measurements the background value (detected at 250 nm, where no peptide signal is present) was subtracted. Signals from the bulk solution were also corrected for (see Table 5).

bacteria = assay: Antibacterial activity in vitro; assay type: cell-based
Experimental: Radial diffusion assays (RDA) were performed essentially as described earlier (Lehrer, R. I., Rosenman, M., Harwig, S. S., Jackson, R. & Eisenhauer, P. (1991) Ultrasensitive assays for endogenous antimicrobial polypeptides, J Immunol Methods. 137, 167-73.).
Briefly, bacteria (E. coli, P. aeruginosa, S. aureus, B. subtilis) or fungi (C. albicans) were grown to mid-logarithmic phase in 10 ml of full-strength (3% w/v) trypticase soy broth (TSB) (Becton-Dickinson, Cockeysville, Md.). The microorganisms were washed once with 10 mM Tris, pH 7.4. 4×10^6 bacterial cfu or 1×10^5 fungal cfu was added to 5 ml of the underlay agarose gel, consisting of 0.03% (w/v) TSB, 1% (w/v) low-electroendoosmosistype (Low-EEO) agarose (Sigma, St Louise Mo.) and a final concentration of 0.02% (v/v) Tween 20 (Sigma). The underlay was poured into a Ø 85 mm petri dish. After agarose solidified, 4 mm-diameter wells were punched and 6 μl of test sample was added to each well. Plates were incubated at 37° C. for 3 hours to allow diffusion of the peptides. The underlay gel was then covered with 5 ml of molten overlay (6% TSB and 1% Low-EEO agarose in dH2O). Antimicrobial activity of a peptide is visualized as a clear zone around each well after 18-24 hours of incubation at 37° C. for bacteria and 28° C. for Candida albicans.

E. coli bacteria = assay: Antibacterial effect of HB-EGF in vitro (bacterial survival); assay type: cell-based; settings: HB-EGF at 6 μM, 2×10^6 cfu/ml E. coli, 10 mM Tris, pH 7.4
Experimental: The antibacterial effect of HB-EGF (Q99075, SEQ ID NO: 19) was evaluated in vitro. 2×10^6 cfu/ml of E. coli bacteria were incubated in 50 μl with HB-EGF at 6 μM in 10 mM Tris, pH 7.4 buffer (Tris). The difference in bacterial survival was significant for the HB-EGF treated material vs. the control (no HB-EGF present), i.e. HB-EGF does in it self posses an antibacterial effect, although less pronounced than the peptides being derived from it.

Erythrocytes = assay type: cell-based; settings: 1 h
Experimental: EDTA-blood was centrifuged at 800 g for 10 min, whereafter plasma and buffy coat were removed. The erythrocytes were washed three times and resuspended in 5% PBS, pH 7.4. The cells were then incubated with end-over-end rotation for 1 h at 37° C. in the presence of peptides (3-60 μM). 2% Triton X-100 (Sigma-Aldrich) served as positive control. The samples were then centrifuged at 800 g for 10 min. The absorbance of hemoglobin release was measured at λ 540 nm and is in the plot expressed as % of TritonX-100 induced hemolysis (FIG. 5 and table 6). The peptides in table 3A (SEQ ID No. 12-18) were evaluated as described above.

[4] = tested on: Gram-positive and Gram-negative bacterial, fungal, and viral pathogens; settings: Niyonsaba and Ogawa 2005; cited from earlier work

With “GKRKKKGKGLGKKRDPCLRKYK (listed as Homo sapiens) [GKR22]” the “PC + NaCl (CF release, liposome leakage)” value [1] was 4 ± 1, the “PC − NaCl (CF release, liposome leakage)” value [1] was 72 ± 8 and the “PA + NaCl (CF release, liposome leakage)” value [2] was 2 ± 1. The “PA − NaCl (CF release, liposome leakage)” value [2] was 42 ± 7, the “Helix content, PA” value [3] was 10 ± 3% and the “Helix content, PC” value [3] was 5 ± 2%. For the same substance, the “Helix content, Buffer” value [3] was 8 ± 2% and the “antibacterial activity in vitro” value (bacteria) was “shows antibacterial activity in vitro”.
For “GRPRESGKKRKRKRKLKPT (listed as Homo sapiens) [GRP19]”, the “PC + NaCl (CF release, liposome leakage)” value [1] was 4 ± 1, the “PC − NaCl (CF release, liposome leakage)” value [1] was 30 ± 12 and the “PA + NaCl (CF release, liposome leakage)” value [2] was 5 ± 1. The “PA − NaCl (CF release, liposome leakage)” value [2] was 20 ± 2, the “Helix content, PA” value [3] was 8 ± 3% and the “Helix content, PC” value [3] was 8 ± 4%. For the same substance, the “Helix content, Buffer” value [3] was 9 ± 2% and the “antibacterial activity in vitro” value (bacteria) was “show antibacterial activity in vitro”.
For “HB-EGF: Human heparin-binding EGF-like growth factor (accession code Q99075)”, the “difference in bacterial survival vs. control” value (E. coli bacteria) was “significant”.
With KRKKKGKGLGKKRDPCLRKY [KRK20: A] the “Erythrocytes Hemolysis (%) Mean” value (Erythrocytes) was 2.25%.
With KRKKKGKGLGKKRLPCLRKY [KRK20: C] the “Erythrocytes Hemolysis (%) Mean” value (Erythrocytes) was 2.31%.
In the case of KRKKKGKGLGKKRWPCLRKY [KRK20: G], the “Erythrocytes Hemolysis (%) Mean” value (Erythrocytes) is reported as 2.29%.
In the case of KRKKKGKGWGKKRDPCLRKY [KRK20: D], the “Erythrocytes Hemolysis (%) Mean” value (Erythrocytes) is reported as 2.56%.
For KRKKKGKGWGKKRLPCLRKY [KRK20: E], the “Erythrocytes Hemolysis (%) Mean” value (Erythrocytes) was 2.73%.
With KRKKKGKGWGKKRWPCLRKY [KRK20: F] the “Erythrocytes Hemolysis (%) Mean” value (Erythrocytes) was 3.14%.
For KRKRKGKGLGKKKDPCLRKF [KRK20: B], the “Erythrocytes Hemolysis (%) Mean” value (Erythrocytes) was 2.26%.
In the case of “LKIKTKKVNTADQCANRCTRNKGL (listed as Homo sapiens) [LKI24]”, the “PC + NaCl (CF release, liposome leakage)” value [1] is reported as 6 ± 3, the “PC − NaCl (CF release, liposome leakage)” value [1] is reported as 54 ± 4 and the “PA + NaCl (CF release, liposome leakage)” value [2] is reported as 2 ± 2. The “PA − NaCl (CF release, liposome leakage)” value [2] was 25 ± 4, the “Helix content, PA” value [3] was 14 ± 4% and the “Helix content, PC” value [3] was 9 ± 3%. The “Helix content, Buffer” value [3] was 13 ± 3%.
With “LKKNGSCKRGPRTHYGQKAIL (human growth factor) [LKK21, FGF1_HUMAN aa 126-146]” the “PC + NaCl (CF release, liposome leakage)” value [1] was 6 ± 2, the “PC − NaCl (CF release, liposome leakage)” value [1] was 26 ± 3 and the “PA − NaCl (CF release, liposome leakage)” value [2] was 4 ± 2. For the same substance, the “Helix content, PA” value [3] was 10 ± 4%, the “Helix content, PC” value [3] was 13 ± 5% and the “Helix content, Buffer” value [3] was 11 ± 2%. For the same substance, the “antibacterial activity in vitro” value (bacteria) was “shows antibacterial activity in vitro”.
With “LKRTGQYKLGSKTGPGQKAIL (listed as Homo sapiens) [LKR21, FGF2_HUMAN aa 127-147]” the “PC − NaCl (CF release, liposome leakage)” value [1] was 2 ± 1 and the “PA − NaCl (CF release, liposome leakage)” value [2] was 3 ± 1.
In the case of “LLGDFFRKSKEKIGKEFKRIVQRIKDFLRNLVPRTES [LL-37, reference compound]”, the “PC + NaCl (CF release, liposome leakage)” value [1] is reported as 73 ± 7, the “PC − NaCl (CF release, liposome leakage)” value [1] is reported as 100 ± 10 and the “PA + NaCl (CF release, liposome leakage)” value [2] is reported as 57 ± 6. For the same substance, the “PA − NaCl (CF release, liposome leakage)” value [2] was 100 ± 10, the “Helix content, PA” value [3] was 100 ± 10% and the “Helix content, PC” value [3] was 100 ± 10%. The “Helix content, Buffer” value [3] was 60 ± 10% and the antimicrobial activity spectrum [4] was “broad-spectrum antimicrobial activity”.
For “LNGKGAPRRGQKTRRKNTSAH (listed as Homo sapiens) [LNG21]”, the “PC − NaCl (CF release, liposome leakage)” value [1] was 12 ± 2 and the “PA − NaCl (CF release, liposome leakage)” value [2] was 9 ± 5.
In the case of “LNQKGIPVRGKKTKKEQKTAH (listed as Homo sapiens) [LNQ21, FGF7_HUMAN aa 167-187]”, the “PC − NaCl (CF release, liposome leakage)” value [1] is reported as 2 ± 1 and the “PA − NaCl (CF release, liposome leakage)” value [2] is reported as 10 ± 1.
In the case of “LRPVQVRKIEIVRRKPIFKKATVT (LRPVQVRKIEIVRKKPIFKKATVT; listed as Homo sapiens) [LRP24]”, the “PC + NaCl (CF release, liposome leakage)” value [1] is reported as 4 ± 4, the “PC − NaCl (CF release, liposome leakage)” value [1] is reported as 33 ± 11 and the “PA + NaCl (CF release, liposome leakage)” value [2] is reported as 6 ± 3. For the same substance, the “PA − NaCl (CF release, liposome leakage)” value [2] was 44 ± 10, the “Helix content, PA” value [3] was 15 ± 3% and the “Helix content, PC” value [3] was 10 ± 4%. For the same substance, the “Helix content, Buffer” value [3] was 13 ± 3% and the “antibacterial activity in vitro” value (bacteria) was “show antibacterial activity in vitro”.
With “PKRKKKGGKNGKNRRNRKKKN (listed as Homo sapiens) [PKR21]” the “PC + NaCl (CF release, liposome leakage)” value [1] was 6 ± 1, the “PC − NaCl (CF release, liposome leakage)” value [1] was 38 ± 3 and the “PA − NaCl (CF release, liposome leakage)” value [2] was 13 ± 8. The “Helix content, PA” value [3] was 9 ± 4%, the “Helix content, PC” value [3] was 9 ± 3% and the “Helix content, Buffer” value [3] was 10 ± 2%. The “antibacterial activity in vitro” value (bacteria) was “shows antibacterial activity in vitro”.
For “QRAKTPQTRVTIRTVRVRRPP (listed as Homo sapiens) [QRA21]”, the “PC − NaCl (CF release, liposome leakage)” value [1] was 10 ± 1, the “PA − NaCl (CF release, liposome leakage)” value [2] was 0 ± 1 and the “antibacterial activity in vitro” value (bacteria) was “show antibacterial activity in vitro”.
In the case of “RVRRPPKGKHRKFHTHDKTA (RVRRPPKGKHRKFKHTHDKTA; listed as Homo sapiens) [RVR21]”, the “PC + NaCl (CF release, liposome leakage)” value [1] is reported as 6 ± 1, the “PC − NaCl (CF release, liposome leakage)” value [1] is reported as 55 ± 2 and the “PA + NaCl (CF release, liposome leakage)” value [2] is reported as 8 ± 2. For the same substance, the “PA − NaCl (CF release, liposome leakage)” value [2] was 18 ± 8, the “Helix content, PA” value [3] was 6 ± 3% and the “Helix content, PC” value [3] was 11 ± 4%. For the same substance, the “Helix content, Buffer” value [3] was 8 ± 4% and the “antibacterial activity in vitro” value (bacteria) was “show antibacterial activity in vitro”.
